Measured values: patent publication US3935229A, “Esters of 2-[(4-quinolyl)amino]-benzoic acids” (Synthelabo, priority 1973, dated 1976)
Where a name gives a salt, the structure may show the parent alone. Read-outs that look alike come from different tables or passages of the source.

What was measured:
[1] = tested on: mice of both sexes, of the Swiss strain; assay: in vivo; details: mice, oral administration
Description: (§1) Tests were carried out on mice of both sexes, of the Swiss strain, of average weight 20 g. (± 2g.).

[2] = tested on: heated plate test, Swiss mice; assay: Heated plate test (plate heated by acetone vapours; analgesic effects of the central type); details: oral
[3] = tested on: pain induced, in Swiss mice, by the intraperitoneal injection of phenylquinone; assay: Siegmund test (analgesic effect against pain induced by intraperitoneal phenylquinone); format: in vivo; details: for ED50: Mus musculus; for analgesic effects of the peripheral type (Siegmund test), compared with amidopyrine and glafenine: oral, versus amidopyrine and glafenine
Source text: 1. Effect against pain induced, in Swiss mice, by the intraperitoneal injection of phenylquinone, in accordance with the experimental procedure of Siegmund (Proc. Soc. Exp. Biol. Med., 1957, 95, 729), modified by Cheymol (C.R. Soc. Biol., 1963, 157, 521) and Brittain (Nature, London, 1963, […], 895).

[4] = tested on: carragenine-induced oedema of the paw, Sherman rats; assay: Carragenine-induced oedema test (oedema of the paw); format: in vivo; details: Rattus norvegicus, read-out: Carragenine-induced oedema test AD (AD40 = 40% active dose)
in vivo = details: mouse, in vivo, po
Description: as §1

[5] = po, read-out: Siegmund test AD50 (50% active dose), mice, oral administration
[6] = mice, oral administration, read-out: Siegmund test AD50 (50% active dose)

Question: Which results are given for `O=C(OCCN1CCN(c2cccc(C(F)(F)F)c2)CC1)c1ccccc1Nc1ccnc2cc(C(F)(F)F)ccc12` [Compound 73-017, 2-(4'-m-trifluoromethylphenyl-piperazino)-ethyl 2-(7'-trifluoromethyl-4'-quinolyl-amino)-benzoate dihydrochloride]?
Answer: Acute toxicity LD50 (50% lethal dose) ([1]; dihydrochloride): 1,500 mg/kg; analgesic effects of the central type (heated plate test), compared with amidopyrine ([2]; versus amidopyrine): greater than that of amidopyrine; extent of the greater activity than amidopyrine in the heated plate test ([2]; versus amidopyrine): considerable; ED50 [3, 5]: 4 mg/kg; analgesic effects of the peripheral type (Siegmund test), compared with amidopyrine and glafenine ([3]; mice): generally much more active; ED40 ([4]; po): 60 mg/kg

Question: What does the source list for `O=C(OCC(O)CO)c1ccccc1Nc1ccnc2cc(Cl)ccc12` (stereo not shown) [Glafenine, reference compound]?
Answer: Acute toxicity LD50 (50% lethal dose) [1]: 3,500 mg/kg; central component of the analgesic effect (heated plate test) [2]: much less strong; ED50 [3, 5]: 50 mg/kg; ED40 ([4]; po): 30 mg/kg

Question: With `O=C(OCCN1CCN(c2cccc(C(F)(F)F)c2)CC1)c1ccccc1Nc1ccnc2cc(C(F)(F)F)ccc12` [Compound 73-033, 2-(4'-m-Trifluoromethylphenyl-piperazino)-ethyl 2-(7'-trifluoromethyl-4'-quinolyl-amino)-benzoate] as the molecule, how does the “Acute toxicity LD50 (50% lethal dose)” value [1] read?
Answer: 4,000 mg/kg

Question: And the “Siegmund test AD50 (50% active dose)” value ([3]; mice, oral administration)?
Answer: 5 mg/kg

Question: What does the source list for `O=C(OCCN1CCN(c2cccc(Cl)c2)CC1)c1ccccc1Nc1ccnc2cc(C(F)(F)F)ccc12` [Compound 73-045, 2-(4'-m-Chlorophenyl-piperazino)-ethyl 2-(7'-trifluromethyl-4'-quinolyl-amino)-benzoate]?
Answer: LD50 (in vivo): > 4000 mg/kg; analgesic effects of the central type (heated plate test), compared with amidopyrine ([2]; versus amidopyrine): greater than that of amidopyrine; ED50 [3, 6]: 8 mg/kg; analgesic effects of the peripheral type (Siegmund test), compared with amidopyrine and glafenine ([3]; mice): generally much more active; ED40 ([4]; rats, oral administration): 30 mg/kg

Question: Which results are given for `O=C(OCCN1CCN(c2cccc(C(F)(F)F)c2)CC1)c1ccccc1Nc1ccnc2cc(Cl)ccc12` [Compound 72-391, 2-(4'-m-Trifluoromethylphenyl-piperazino)-ethyl 2-(7'-chloro-4'-quinolyl-amino)-benzoate]?
Answer: Acute toxicity LD50 (50% lethal dose) [1]: 2,500 mg/kg; analgesic effects of the central type (heated plate test), compared with amidopyrine ([2]; versus amidopyrine): greater than that of amidopyrine; ED50 [3, 6]: 20 mg/kg; analgesic effects of the peripheral type (Siegmund test), compared with amidopyrine and glafenine ([3]; mice): generally much more active; ED40 ([4]; rats, oral administration): 40 mg/kg

Question: For `O=C(OCCN1CCN(c2cccc(SC(F)(F)F)c2)CC1)c1ccccc1Nc1ccnc2cc(SC(F)(F)F)ccc12` [Compound 73-069, 2-(4'-m-Trifluoromethylthiophenyl-piperazino)-ethyl 2-(7'-trifluoromethylthio-4'-quinolyl-amino)-benzoate], which “Acute toxicity LD50 (50% lethal dose)” value [1] is on record?
Answer: 2,200 mg/kg

Question: What about the ED50 [3, 6] of the same molecule?
Answer: 50 mg/kg

Question: And the ED40 ([4]; rats, oral administration)?
Answer: 55 mg/kg

Question: For `O=C(OCCN1CCN(c2ccccc2)CC1)c1ccccc1Nc1ccnc2cc(SC(F)(F)F)ccc12` [Compound 72-244, 2-(4'-Phenyl-piperazino)-ethyl 2-(7'-trifluoromethylthio-4'-quinolyl-amino)-benzoate], which “Acute toxicity LD50 (50% lethal dose)” value [1] is on record?
Answer: 1,200 mg/kg

Question: And the ED50 [3, 6]?
Answer: 10 mg/kg

Question: And the “analgesic effects of the peripheral type (Siegmund test), compared with amidopyrine and glafenine” value ([3]; mice)?
Answer: generally much more active
